In US20230104936A1, “TRPML MODULATORS” (Casma Therapeutics, Inc., priority 2019, published 2023):

Tested on: TFEB
Test: TFEB nuclear translocation assay, HeLa wt cells
Assay type: cell-based
Details: 2 hrs compound treatment, Table 1 does not say HeLa wt or TRPML1 KO
Outline: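 Cells are plated overnight, exposed to compounds for 2 hrs at 37° C, fixed with 4% PFA, blocked, and stained overnight at 4° C with rabbit anti-TFEB. After Alexa 488 secondary and Hoechst, nuclei and a perinuclear ring are segmented to give a nuclear:ring intensity ratio and AC50.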

`CC(c1cccc(F)c1N1CCC(CN2CCC(F)(F)CC2)CC1)S(=O)(=O)c1ccc(S(=O)(=O)N(C)C)cc1` (stereo not shown) [Compound A-803, 4-((1-(2-(4-((4,4-difluoropiperidin-1-yl)methyl)piperidin-1-yl)-3-fluorophenyl)ethyl)sulfonyl)-N,N-dimethylbenzenesulfonamide] and `CC(c1cccc(F)c1N1CCC(CN2CCC(F)(F)C2)CC1)S(=O)(=O)c1ccc(S(=O)(=O)N(C)C)cc1` (stereo not shown) [Compound A-805, 4-((1-(2-(4-((3,3-difluoropyrrolidin-1-yl)methyl)piperidin-1-yl)-3-fluorophenyl)ethyl)sulfonyl)-N,N-dimethylbenzenesulfonamide] cannot be ordered by AC50: ≤ 2000 nM for the first, ≤ 2000 nM for the second.

`CC(c1cccc(F)c1N1CCC(CN2CCC(F)(F)CC2)CC1)S(=O)(=O)c1ccc(S(=O)(=O)N(C)C)cc1` (stereo not shown) [Compound A-804, 4-((1-(2-(4-((4,4-difluoropiperidin-1-yl)methyl)piperidin-1-yl)-3-fluorophenyl)ethyl)sulfonyl)-N,N-dimethylbenzenesulfonamide] and `CC(c1cccc(F)c1N1CCC(CN2CCC(F)(F)C2)CC1)S(=O)(=O)c1ccc(S(=O)(=O)N(C)C)cc1` (stereo not shown) [Compound A-806, 4-((1-(2-(4-((3,3-difluoropyrrolidin-1-yl)methyl)piperidin-1-yl)-3-fluorophenyl)ethyl)sulfonyl)-N,N-dimethylbenzenesulfonamide] cannot be ordered by AC50: ≤ 2000 nM for the first, ≤ 2000 nM for the second.

Same assay, conditions: Homo sapiens, HeLa, 2 h, 2 hrs compound treatment, Table 1 does not say HeLa wt or TRPML1 KO

`C[C@@H]1CN(CC2CCN(c3c(NS(=O)(=O)c4ccc(S(=O)(=O)N(C)C)cc4)cccc3C(F)(F)F)CC2)C[C@H](C)O1` [Compound A-788, N4-[2-(4-{[(2R,6S)-2,6-dimethylmorpholin-4-yl]methyl}piperidin-1-yl)-3-(trifluoromethyl)phenyl]-N1,N1-dimethylbenzene-1,4-disulfonamide] and `C[C@@H]1CN(CC2CCN(c3c(F)cccc3NS(=O)(=O)c3ccc(S(=O)(=O)N(C)C)cc3)CC2)C[C@@H](C)O1` [Compound A-818, N4-[2-(4-{[(2R,6R)-2,6-dimethylmorpholin-4-yl]methyl}piperidin-1-yl)-3-fluorophenyl]-N1,N1-dimethylbenzene-1,4-disulfonamide] cannot be ordered by AC50: ≤ 2000 nM for the first, ≤ 2000 nM for the second.

`CN(C)S(=O)(=O)c1ccc(S(=O)(=O)Nc2cccc(F)c2N2CCC(CN3CCC(F)(F)CC3)CC2)cc1` [Compound A-789, N4-(2-{4-[(4,4-difluoropiperidin-1-yl)methyl]piperidin-1-yl}-3-fluorophenyl)-N1,N1-dimethylbenzene-1,4-disulfonamide] and `CC(c1cccc(F)c1N1CCC(CN2CCC(F)(F)CC2)CC1)S(=O)(=O)c1ccc(S(=O)(=O)N(C)C)cc1` (stereo not shown) [Compound A-801, 4-((1-(2-(4-((4,4-difluoropiperidin-1-yl)methyl)piperidin-1-yl)-3-fluorophenyl)ethyl)sulfonyl)-N,N-dimethylbenzenesulfonamide] cannot be ordered by AC50: ≤ 2000 nM for the first, ≤ 2000 nM for the second.

`CN(C)S(=O)(=O)c1ccc(S(=O)(=O)Nc2cccc(F)c2N2CCC(CN3C4CCC3COC4)CC2)cc1` [Compound A-790, N4-{3-fluoro-2-[4-({3-oxa-8-azabicyclo[3.2.1]octan-8-yl}methyl)piperidin-1-yl]phenyl}-N1,N1-dimethylbenzene-1,4-disulfonamide] and `C[C@@H]1COC[C@H](C)N1CC1CCN(c2c(F)cccc2NS(=O)(=O)c2ccc(S(=O)(=O)N(C)C)cc2)CC1` [Compound A-824, N4-[2-(4-{[(3R,5S)-3,5-dimethylmorpholin-4-yl]methyl}piperidin-1-yl)-3-fluorophenyl]-N1,N1-dimethylbenzene-1,4-disulfonamide] cannot be ordered by AC50: ≤ 2000 nM for the first, ≤ 2000 nM for the second.

Going from `CN(C)S(=O)(=O)c1ccc(S(=O)(=O)Nc2cccc(F)c2N2CCC(CN3CC4CC(C3)O4)CC2)cc1` [Compound A-791, N4-{3-fluoro-2-[4-({6-oxa-3-azabicyclo[3.1.1]heptan-3-yl}methyl)piperidin-1-yl]phenyl}-N1,N1-dimethylbenzene-1,4-disulfonamide] to `C[C@@H]1CC(OC2CCN(c3c(F)cccc3NS(=O)(=O)c3ccc(S(=O)(=O)N(C)C)cc3)CC2)C[C@H](C)O1` (stereo partly drawn) [Compound A-817, N4-[2-(4-{[(2R,6S)-2,6-dimethyloxan-4-yl]oxy}piperidin-1-yl)-3-fluorophenyl]-N1,N1-dimethylbenzene-1,4-disulfonamide], the AC50 falls from ≥ 10000 nM to ≤ 2000 nM.

`CN(C)S(=O)(=O)c1ccc(S(=O)(=O)Nc2cccc(F)c2N2CCC3(CCNC3=O)CC2)cc1` [Compound A-792, N4-(3-fluoro-2-{1-oxo-2,8-diazaspiro[4.5]decan-8-yl}phenyl)-N1,N1-dimethylbenzene-1,4-disulfonamide] and `CN(C)S(=O)(=O)c1ccc(S(=O)(=O)Nc2cccc(F)c2N2CCC3(CCN3)CC2)cc1` [Compound A-816, N4-(2-{1,7-diazaspiro[3.5]nonan-7-yl}-3-fluorophenyl)-N1,N1-dimethylbenzene-1,4-disulfonamide] cannot be ordered by AC50: ≥ 10000 nM for the first, ≥ 10000 nM for the second.

`CN(C)S(=O)(=O)c1ccc(S(=O)(=O)Nc2ccc3ccnn3c2N2CCCCC2)cc1` [Compound A-793, N1,N1-dimethyl-N4-[7-(piperidin-1-yl)pyrazolo[1,5-a]pyridin-6-yl]benzene-1,4-disulfonamide] and `COCC1(C)CCN(c2c(NS(=O)(=O)c3ccc(S(=O)(=O)N(C)C)cc3)ccc3ccnn23)CC1` [Compound A-822, N4-{7-[4-(methoxymethyl)-4-methylpiperidin-1-yl]pyrazolo[1,5-a]pyridin-6-yl}-N1,N1-dimethylbenzene-1,4-disulfonamide] fall in the same range of AC50: 2010 to 8000 nM for the first, 2010 to 8000 nM for the second.

First: C[C@@H]1CN(CC2(F)CCN(c3c(F)cccc3NS(=O)(=O)c3ccc(S(=O)(=O)N(C)C)cc3)CC2)C[C@H](C)O1 [Compound A-794, N4-[2-(4-{[(2R,6S)-2,6-dimethylmorpholin-4-yl]methyl}-4-fluoropiperidin-1-yl)-3-fluorophenyl]-N1,N1-dimethylbenzene-1,4-disulfonamide]
Second: CC(=O)NC1(C)CCN(c2c(F)cccc2NS(=O)(=O)c2ccc(S(=O)(=O)N(C)C)cc2)CC1 [Compound A-795, N-(1-{2-[4-(dimethylsulfamoyl)benzenesulfonamido]-6-fluorophenyl}-4-methylpiperidin-4-yl)acetamide]
The AC50 of the first is lower: ≤ 2000 nM for the first, 8010 to 9990 nM for the second.

Compared with `CN(C)S(=O)(=O)c1ccc(S(=O)(=O)Nc2cccc(F)c2N2CCC3(CCC(=O)N3)CC2)cc1` [Compound A-796, N4-(3-fluoro-2-{2-oxo-1,8-diazaspiro[4.5]decan-8-yl}phenyl)-N1,N1-dimethylbenzene-1,4-disulfonamide], `CN(C)S(=O)(=O)c1ccc(S(=O)(=O)Nc2cccc(F)c2N2CCC(N)(C(F)(F)F)CC2)cc1` [Compound A-821, N4-{2-[4-amino-4-(trifluoromethyl)piperidin-1-yl]-3-fluorophenyl}-N1,N1-dimethylbenzene-1,4-disulfonamide] is lower in AC50: ≥ 10000 nM for the first, ≤ 2000 nM for the second.

`CN(C)S(=O)(=O)c1ccc(S(=O)(=O)Nc2ccccc2N2CCC(COC(F)(F)CF)CC2)cc1` [Compound A-797, N1,N1-dimethyl-N4-(2-{4-[(1,1,2-trifluoroethoxy)methyl]piperidin-1-yl}phenyl)benzene-1,4-disulfonamide] and `CN(C)S(=O)(=O)c1ccc(S(=O)(=O)Nc2ccccc2N2CCC(F)(COC(F)(F)F)CC2)cc1` [Compound A-798, N4-(2-{4-fluoro-4-[(trifluoromethoxy)methyl]piperidin-1-yl}phenyl)-N1,N1-dimethylbenzene-1,4-disulfonamide] cannot be ordered by AC50: ≤ 2000 nM for the first, ≤ 2000 nM for the second.

`CC(c1cccc(F)c1N1CCC(CN2C[C@@H](C)O[C@@H](C)C2)CC1)S(=O)(=O)c1ccc(S(=O)(=O)C(F)F)cc1` (stereo partly drawn) [Compound A-800, (2R,6S)-4-[(1-{2-[1-(4-difluoromethanesulfonylbenzenesulfonyl)ethyl]-6-fluorophenyl}piperidin-4-yl)methyl]-2,6-dimethylmorpholine] and `CC(c1cccc(F)c1N1CCC(CN2CCC(F)(F)C2)CC1)S(=O)(=O)c1ccc(S(=O)(=O)N(C)C)cc1` (stereo not shown) [Compound A-802, 4-[1-(2-{4-[(3,3-difluoropyrrolidin-1-yl)methyl]piperidin-1-yl}-3-fluorophenyl)ethanesulfonyl]-N,N-dimethylbenzene-1-sulfonamide] cannot be ordered by AC50: ≤ 2000 nM for the first, ≤ 2000 nM for the second.

First: CNC(=O)c1cccc(NS(=O)(=O)c2ccc(S(=O)(=O)N(C)C)cc2)c1N1CCCCC1 [Compound A-809, 3-[4-(dimethylsulfamoyl)benzenesulfonamido]-N-methyl-2-(piperidin-1-yl)benzamide]
Second: C#Cc1ccc(NS(=O)(=O)c2ccc(S(=O)(=O)N(C)C)cc2)c(N2CCCCC2)c1 [Compound A-812, N4-[4-ethynyl-2-(piperidin-1-yl)phenyl]-N1,N1-dimethylbenzene-1,4-disulfonamide]
The AC50 of the first is higher: ≥ 10000 nM for the first, ≤ 2000 nM for the second.

First: COCC1(C)CCN(c2c(NS(=O)(=O)c3ccc(S(=O)(=O)N(C)C)cc3)ccc3nccn23)CC1 [Compound A-813, N4-{5-[4-(methoxymethyl)-4-methylpiperidin-1-yl]imidazo[1,2-a]pyridin-6-yl}-N1,N1-dimethylbenzene-1,4-disulfonamide]
Second: C[C@@H]1CN(CC2CCN(c3c(F)cccc3NS(=O)(=O)c3ccc(C(F)(F)C4CC4)cc3)CC2)C[C@H](C)O1 [Compound A-814, 4-(cyclopropyldifluoromethyl)-N-[2-(4-{[(2R,6S)-2,6-dimethylmorpholin-4-yl]methyl}piperidin-1-yl)-3-fluorophenyl]benzene-1-sulfonamide]
The AC50 of the first is higher: ≥ 10000 nM for the first, ≤ 2000 nM for the second.

`O=S(=O)(c1ccc2c(c1)CCC2)N1Cc2cccc(N3CCOCC3)c2C1` [Compound A-819, 2-(2,3-dihydro-1H-indene-5-sulfonyl)-4-(morpholin-4-yl)-2,3-dihydro-1H-isoindole] and `Cc1ccc(S(=O)(=O)N2Cc3cccc(N4CCOCC4)c3C2)cc1` [Compound A-820, 2-(4-methylbenzenesulfonyl)-4-(morpholin-4-yl)-2,3-dihydro-1H-isoindole] cannot be ordered by AC50: ≥ 10000 nM for the first, ≥ 10000 nM for the second.

With `Cc1cc(NS(=O)(=O)c2ccc3c(c2)CCC3)c(Cl)c(N2CCOCC2)c1` [Compound A-823, N-[2-chloro-5-methyl-3-(morpholin-4-yl)phenyl]-2,3-dihydro-1H-indene-5-sulfonamide] the AC50 was ≥ 10000 nM.
